Reference: patent US4786643A, “Treatment of migraine, cluster headaches and trigeminal neuralgia” (Beecham Group p.l.c., priority 1985, dated 1988)

Assays:
Format in all cases: in vivo
[1] = test system: emetic response (cisplatin); assay: Inhibition of Chemotherapy Induced Nausea and Vomiting (cisplatin, ferret); conditions: administered twice, cisplatin 10 mg/kg i.v., 5 hours
Excerpt: 2. Inhibition of Chemotherapy Induced Nausea and Vomiting
Adult male ferrets (initial body weight 1.3-1.8 kg) were individually housed, fed once daily (200 g Chum Puppy Food plus 50 g Lab Diet A) and were supplied with water ad libitum. Additionally, each animal was given 1/2 pint of milk daily during an acclimatization period.
To facilitate intravenous administration of drugs, a chronic indwelling catheter was surgically implanted into the jugular vein using a modification of the technique described by Florczyk and Schurig, 1981 (Pharmacol. Biochem. Behav., 14, 255-257). Prior to surgery each animal was sedated with ketamine hydrochloride (40 mg/animal intramuscularly) and anaesthetised with a halothane-N2 O--O2 mixture. A four day recovery period was allowed before commencement of an experiment.
For each group of animals, a preliminary study was carried out to establish an intravenous dose level of cisplatin which would give a consistent and reproducible emetic response. The appropriate dose of test compound was administered intravenously twice to each animal; 30 minutes before and 45 minutes after dosing with cisplatin. Running controls received vehicle and cisplatin only.
A single emetic response commenced when an animal assumed a characterrc posture with retching and was concluded when either vomitus was expelled or was present in the mouth as evidenced by a chewing movement.
All solutions were prepared in water for injection B. P. Cisplatin was prepared from vials of Neoplatin for injection (Mead Johnson; dose volume of […]).

[2] = test system: Radiation Induced Nausea and Vomiting; assay: Inhibition of Radiation Induced Nausea and Vomiting (X-ray, ferret); conditions: for No. of animals completely protected/No. of animals used: 2 to 4 minutes before irradiation; for Latency period, Group Mean (±s.e.m.): taken as 120 minutes in animals completely protected, vehicle 19.4 (±1.1); for No. of emetic episodes, Group Mean (±s.e.m.): vehicle 28.8 (±1.3)
Excerpt: 3. Inhibition of Radiation Induced Nausea and Vomiting.
Ferrets with surgically implanted indwelling venous cannulae were restrained in a purposely constructed perspex box, and exposed to ionising radiation from an X-ray source. The X-ray source (Machlett, Model OEG-50, Tungsten Anode) was approximately 25 cm from the upper surface of the animal, and was operated at 50 Kv and 20 mA through a 1 mm beryllium window and 0.18 mm aluminium filtration. The whole body of each animal was irradiated for 10.4 minutes at a dose rate of 300 rad/minute. At the completion of irradiation animals were put back in their pens and observed for at least 120 minutes. The time from the start of irradiation to the first emetio episode (latency period), and the number of emetic episodes were recorded. […] The test compound was injected intravenously 2 to 4 minutes before the start of irradiation.

[3] = test system: arrhythmias after coronary ligation; assay: Antiarrhythmic Activity, dog coronary ligation model; conditions: for reduction of ectopic beats on day 2 (max. effects) / antagonism of arrhythmias on day 2 (max. effects): 48 h after coronary ligation; for reduction of ectopic beats on day 1 (max. effects) / antagonism of arrhythmias on day 2 (max. effects): 2. dog
Protocol: 4. Antiarrhythmic Activity
The compound of Example 9 was tested for antiarrhythmic activity in the dog coronary ligation model (method: Harris, A., Circulation Res. 1, 1318-1328, 1950).

[4] = test system: von Bezold-Jarisch reflex evoked by 5HT; assay: Antagonism of the von Bezold-Jarisch reflex evoked by 5HT in the anaesthetised rat; conditions: iv, anaesthetised male rats, i.v., 5-HT 6-20 μg/kg i.v., heart rate, read-out: ED50 (reduction of the 5HT-evoked response to 50% of the control response)
Protocol: 1. Antagonism of the von Bezold-Jarisch reflex
The compounds were evaluated for antagonism of the von Bezold-Jarisch reflex evoked by 5HT in the anaesthetised rat according to the following method:
Male rats 250-350 g, were anaesthetised with urethane (1.25 g/kg intraperitoneally) and blood pressure and heart rate recorded as described by Fozard J. R. et al., J. Cardiovasc. Pharmacol. 2, 229-245 (1980). A submaximal dose of 5-HT (6-20 μg/kg) was given repeatedly by the intravenous route and changes in heart rate quantified. Test Compounds were given intravenously and the concentration required to reduce the 5HT-evoked response to 50% of the control response (ED50) was then determined.

COc1cc(N)c(Cl)cc1C(=O)NC1CCN2CCCC1C2 (racemic) [Example 9, (±)4-amino-5-chloro-2-methoxy-N-(4[1-azabicyclo-3,3,1]-nonyl])-benzamide]
No. of animals completely protected/No. of animals used ([1]; 0.65 mg/kg i.v.): 1/6
No. of animals completely protected/No. of animals used ([1]; 1.25 mg/kg i.v.): 4/6
No. of animals completely protected/No. of animals used ([1]; 2.5 mg/kg i.v.): 3/6
No. of animals completely protected/No. of animals used ([2]; 0.25 mg/kg i.v.): 1/4
Latency period, Group Mean (±s.e.m.) ([2]; 0.25 mg/kg i.v., P < 0.05): 64.0 (±18.7)
No. of emetic episodes, Group Mean (±s.e.m.) ([2]; 0.25 mg/kg i.v., P < 0.05): 7.8 (±3.3)
No. of animals completely protected/No. of animals used ([2]; 1.25 mg/kg i.v.): 2/5
Latency period, Group Mean (±s.e.m.) ([2]; 1.25 mg/kg i.v., P < 0.01): 79.2 (±16.7)
No. of emetic episodes, Group Mean (±s.e.m.) ([2]; 1.25 mg/kg i.v., P < 0.01): 1.2 (±0.6)
effect on day 1-arrhythmias (max. effects) ([3]; 1. dog, 24 h after coronary ligation, 0.5-3.0 mg/kg): no effect
reduction of ectopic beats on day 2 (max. effects) ([3]; 1. dog, 2.0 mg/kg): 41%
reduction of ectopic beats on day 2 (max. effects) ([3]; 1. dog, 3.0 mg/kg): 76%
reduction of ectopic beats on day 1 (max. effects) ([3]; 24 h after coronary ligation, 20 mg/kg (so in the source)): 69%
reduction of ectopic beats on day 1 (max. effects) ([3]; 24 h after coronary ligation, 1,0 mg/kg): 63%
reduction of ectopic beats on day 1 (max. effects) ([3]; 24 h after coronary ligation, 3,0 mg/kg): 82%
antagonism of arrhythmias on day 2 (max. effects) ([3]; 0.5 mg/kg): 89%
antagonism of arrhythmias on day 2 (max. effects) ([3]; 1.0 mg/kg): 100%
ED50 [4]: 3.3 µg/kg
